Data published in US20240158446A1, “CYCLIC COMPOUND HAVING SELECTIVE INHIBITORY ACTION ON KRAS OVER HRAS AND NRAS” (CHUGAI SEIYAKU KABUSHIKI KAISHA, priority 2021, published 2024).

What was measured:
[1] = molecular target: GDP-bound HRAS wild-type protein (Homo sapiens, UniProt P01112); test: Binding to HRAS by surface plasmon resonance (SPR), Single Cycle Kinetics; conditions: SPR; GDP-bound HRAS wild-type protein vs GDP-bound KRAS wild-type protein; KD ratio class
[2] = molecular target: GDP-bound KRAS wild-type protein (Homo sapiens, UniProt P01116); test: Binding to KRAS by surface plasmon resonance (SPR), Single Cycle Kinetics; conditions: SPR, Single Cycle Kinetics, 1:1 binding model; GDP-bound KRAS wild-type protein; read-out: KRAS KD
[3] = molecular target: GDP-bound NRAS wild-type protein (Homo sapiens, UniProt P01111); test: Binding to NRAS by surface plasmon resonance (SPR), Single Cycle Kinetics; conditions: SPR; GDP-bound NRAS wild-type protein vs GDP-bound KRAS wild-type protein; KD ratio class
GDP-bound NRAS wild-type protein, sequence (P01111 whole entry): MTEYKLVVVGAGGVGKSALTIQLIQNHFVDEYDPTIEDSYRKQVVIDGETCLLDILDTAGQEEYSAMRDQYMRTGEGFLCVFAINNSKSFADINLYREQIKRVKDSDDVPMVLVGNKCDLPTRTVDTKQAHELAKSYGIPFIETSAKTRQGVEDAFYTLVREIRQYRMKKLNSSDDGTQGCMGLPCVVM

GDP-bound KRAS wild-type protein, sequence (P01116 whole entry): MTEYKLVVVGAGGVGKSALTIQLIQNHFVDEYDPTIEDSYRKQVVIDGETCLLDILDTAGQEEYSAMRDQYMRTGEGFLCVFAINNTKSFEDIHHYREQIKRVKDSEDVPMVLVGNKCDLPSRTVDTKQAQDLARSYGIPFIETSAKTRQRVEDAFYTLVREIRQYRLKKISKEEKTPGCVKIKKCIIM
GDP-bound HRAS wild-type protein, sequence (P01112 whole entry): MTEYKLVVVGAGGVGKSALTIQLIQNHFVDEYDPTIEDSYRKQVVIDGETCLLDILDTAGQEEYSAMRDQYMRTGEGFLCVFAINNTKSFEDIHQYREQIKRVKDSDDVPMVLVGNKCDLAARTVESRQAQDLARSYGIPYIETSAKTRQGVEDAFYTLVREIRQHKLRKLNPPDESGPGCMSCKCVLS

| SMILES | Kd [2] [nM] | HRAS/KRAS (ratio of KD value for HRAS to KD value for KRAS) [1] | NRAS/KRAS (ratio of KD value for NRAS to KD value for KRAS) [3] |
| --- | --- | --- | --- |
| CCO[C@@H]1C[C@H]2C(=O)NC3(CCC3)C(=O)N(C)[C@@H](C(CC)CC)C(=O)N(C)[C@H](C(=O)N(C)C)CC(=O)N(C)[C@@H](CC(C)C)C(=O)N[C@@H]([C@@H](C)CC)C(=O)N(C)CC(=O)N(C)[C@H]3C/C=C\CCN(C3=O)[C@@H](Cc3ccc(F)cc3C)C(=O)N(C)CC(=O)N[C@@H](CCc3cc(F)c(C(F)(F)F)c(F)c3)C(=O)N2C1 [PP1518] | 0.58 | B (a compound having 3 or more and less than 10 is denoted as B) | A (a compound having 10 or more and less than 20 is denoted as A) |
| CCO[C@@H]1C[C@H]2C(=O)NC3(CCC3)C(=O)N(C)[C@@H](C(CC)CC)C(=O)N(C)[C@H](C(=O)N(C)C)CC(=O)N(C)[C@@H](CC(C)C)C(=O)N[C@@H]([C@@H](C)CC)C(=O)N(C)CC(=O)N(C)[C@H]3C/C=C\CCN(C3=O)[C@@H](Cc3ccc(F)cc3)C(=O)N(C)CC(=O)N[C@@H](CCc3cc(F)c(C(F)(F)F)c(F)c3)C(=O)N2C1 [PP1519] | 0.41 | A (a compound having 10 or more and less than 20 is denoted as A) | A (a compound having 10 or more and less than 20 is denoted as A) |
| CCO[C@@H]1C[C@H]2C(=O)NC3(CCC3)C(=O)N(C)[C@@H](C(CC)CC)C(=O)N(C)[C@H](C)CC(=O)N(C)[C@@H](CC3CC3)C(=O)N[C@@H]([C@@H](C)CC)C(=O)N(C)CC(=O)N(C)[C@H]3C/C=C\CCN(C3=O)[C@@H](Cc3ccc(F)cc3)C(=O)N(C)CC(=O)N[C@@H](CCc3cc(F)c(C(F)(F)F)c(F)c3)C(=O)N2C1 [PP1521] | 2.6 | B (a compound having 3 or more and less than 10 is denoted as B) | A (a compound having 10 or more and less than 20 is denoted as A) |
| CCO[C@@H]1C[C@H]2C(=O)NC3(CCC3)C(=O)N(C)[C@@H](C3CCCC3)C(=O)N(C)[C@H](C(=O)N(C)C)CC(=O)N(C)[C@@H](CC(C)C)C(=O)N[C@@H]([C@@H](C)CC)C(=O)N(C)CC(=O)N(C)[C@H]3C/C=C\CCN(C3=O)[C@@H](Cc3ccc(F)cc3C)C(=O)N(C)CC(=O)N[C@@H](CCc3cc(F)c(C(F)(F)F)c(F)c3)C(=O)N2C1 [PP1532] | 0.19 | B (a compound having 3 or more and less than 10 is denoted as B) | A (a compound having 10 or more and less than 20 is denoted as A) |
| CC[C@H](C)[C@@H]1NC(=O)[C@H](CC(C)C)N(C)C(=O)C[C@@H](C(=O)N(C)C)N(C)C(=O)[C@H](C2CCCC2)N(C)C(=O)C2(CCC2)NC(=O)[C@@H]2[C@@H](OCC(F)F)CCN2C(=O)[C@H](CCc2cc(F)c(C(F)(F)F)c(F)c2)NC(=O)CN(C)C(=O)[C@H](Cc2ccc(C(F)(F)F)cc2)N2CC/C=C\C[C@@H](C2=O)N(C)C(=O)CN(C)C1=O [PP1534, (2S,8S,13S,14S,20S,23S,27S,30S,36S,38Z)-20-cyclopentyl-13-(2,2-difluoroethoxy)-8-[2-[3,5-difluoro-4-(trifluoromethyl)phenyl]ethyl]-27-isobutyl-N,N,4,19,22,26,32,35-octamethyl-30-[(1S)-1-methylpropyl]-3,6,9,15,18,21,25,28,31,34,42-undecaoxo-2-[[4-(trifluoromethyl)phenyl]methyl]spiro[1,4,7,10,16,19,22,26,29,32,35-undecazatricyclo[34.5.1.0^10,14]dotetracont-38-ene-17,1′-cyclobutane]-23-carboxamide] | 0.13 | A (a compound having 10 or more and less than 20 is denoted as A) | AA (a compound having 20 or more is denoted as AA) |
| CC[C@H](C)[C@@H]1NC(=O)[C@H](CC2CCCC2)N(C)C(=O)C[C@@H](C(=O)N(C)C)N(C)C(=O)[C@@H](C2CCCC2)N(C)C(=O)C2(CCC2)NC(=O)[C@@H]2[C@@H](OCC(F)F)CCN2C(=O)[C@@H](CCc2cc(F)c(C(F)(F)F)c(F)c2)NC(=O)CN(C)C(=O)[C@@H](Cc2ccc(C)cc2)N2CC/C=C\C[C@H](C2=O)N(C)C(=O)CN(C)C1=O [PP1536] | 0.2 | B (a compound having 3 or more and less than 10 is denoted as B) | A (a compound having 10 or more and less than 20 is denoted as A) |
| CC[C@H](C)[C@@H]1NC(=O)[C@H](CC2CC2)N(C)C(=O)C[C@@H](C(=O)N(C)CC)N(C)C(=O)[C@H](C2CCCC2)N(C)C(=O)C2(CCC2)NC(=O)[C@@H]2CC(F)(F)CN2C(=O)[C@H](CCc2cc(F)c(C(F)(F)F)c(F)c2)NC(=O)CN(C)C(=O)[C@H](Cc2ccc(C(F)(F)F)cc2)N2CC/C=C\C[C@@H](C2=O)N(C)C(=O)CN(C)C1=O [PP1538] | 0.086 | B (a compound having 3 or more and less than 10 is denoted as B) | A (a compound having 10 or more and less than 20 is denoted as A) |

More lines, in order of falling Kd [2], values ahead:

| Kd [2] [nM] | SMILES | HRAS/KRAS (ratio of KD value for HRAS to KD value for KRAS) [1] | NRAS/KRAS (ratio of KD value for NRAS to KD value for KRAS) [3] |
| --- | --- | --- | --- |
| 8.8 | CCO[C@@H]1C[C@H]2C(=O)NC3(CCC3)C(=O)N(C)[C@@H](C(CC)CC)C(=O)N(C)[C@H](C)CC(=O)N(C)[C@@H](CC3CCCC3)C(=O)N[C@@H]([C@@H](C)CC)C(=O)N(C)CC(=O)N(C)[C@H]3C/C=C\CCN(C3=O)[C@@H](Cc3ccc(F)cc3C)C(=O)N(C)CC(=O)N[C@@H](CCc3cc(F)c(C(F)(F)F)c(F)c3)C(=O)N2C1 [PP1522] | A (a compound having 10 or more and less than 20 is denoted as A) | A (a compound having 10 or more and less than 20 is denoted as A) |
| 1.3 | CCO[C@@H]1C[C@H]2C(=O)NC3(CCC3)C(=O)N(C)[C@@H](C(CC)CC)C(=O)N(C)[C@H](C(=O)N3CCOCC3)CC(=O)N(C)[C@@H](CC3CC3)C(=O)N[C@@H]([C@@H](C)CC)C(=O)N(C)CC(=O)N(C)[C@H]3C/C=C\CCN(C3=O)[C@@H](Cc3ccc(F)cc3C)C(=O)N(C)CC(=O)N[C@@H](CCc3cc(F)c(C(F)(F)F)c(F)c3)C(=O)N2C1 [PP1526] | A (a compound having 10 or more and less than 20 is denoted as A) | A (a compound having 10 or more and less than 20 is denoted as A) |
| 0.43 | CCO[C@@H]1C[C@H]2C(=O)NC3(CCC3)C(=O)N(C)[C@@H](C(CC)CC)C(=O)N(C)[C@H](C(=O)N(C)C)CC(=O)N(C)[C@@H](CC3CCCC3)C(=O)N[C@@H]([C@@H](C)CC)C(=O)N(C)CC(=O)N(C)[C@H]3C/C=C\CCN(C3=O)[C@@H](Cc3ccc(F)cc3)C(=O)N(C)CC(=O)N[C@@H](CCc3cc(F)c(C(F)(F)F)c(F)c3)C(=O)N2C1 [PP1517] | A (a compound having 10 or more and less than 20 is denoted as A) | A (a compound having 10 or more and less than 20 is denoted as A) |
| 0.13 | CC[C@H](C)[C@@H]1NC(=O)[C@H](CC2CC2)N(C)C(=O)C[C@@H](C(=O)N(C)C)N(C)C(=O)[C@H](C2CCCC2)N(C)C(=O)C2(CCC2)NC(=O)[C@@H]2[C@@H](OCC(F)F)CCN2C(=O)[C@H](CCc2cc(F)c(C(F)(F)F)c(F)c2)NC(=O)CN(C)C(=O)[C@H](Cc2ccc(C(F)(F)F)cc2)N2CC/C=C\C[C@@H](C2=O)N(C)C(=O)CN(C)C1=O [PP1533] | A (a compound having 10 or more and less than 20 is denoted as A) | AA (a compound having 20 or more is denoted as AA) |
| 0.12 | CCO[C@@H]1C[C@H]2C(=O)NC3(CCC3)C(=O)N(C)[C@@H](C3CCCC3)C(=O)N(C)[C@H](C(=O)N(C)C)CC(=O)N(C)[C@@H](CC3CCCC3)C(=O)N[C@@H]([C@@H](C)CC)C(=O)N(C)CC(=O)N(C)[C@H]3C/C=C\CCN(C3=O)[C@@H](Cc3ccc(F)cc3)C(=O)N(C)CC(=O)N[C@@H](CCc3cc(F)c(C(F)(F)F)c(F)c3)C(=O)N2C1 [PP1531, (2S,8S,12R,14S,20S,23S,27S,30S,36S,38Z)-20-cyclopentyl-27-(cyclopentylmethyl)-8-[2-[3,5-difluoro-4-(trifluoromethyl)phenyl]ethyl]-12-ethoxy-2-[(4-fluorophenyl)methyl]-N,N,4,19,22,26,32,35-octamethyl-30-[(1S)-1-methylpropyl]-3,6,9,15,18,21,25,28,31,34,42-undecaoxo-spiro[1,4,7,10,16,19,22,26,29,32,35-undecazatricyclo[34.5.1.0^10,14]dotetracont-38-ene-17,1′-cyclobutane]-23-carboxamide] | B (a compound having 3 or more and less than 10 is denoted as B) | A (a compound having 10 or more and less than 20 is denoted as A) |
| 0.067 | CC[C@H](C)[C@@H]1NC(=O)[C@H](CC2CC2)N(C)C(=O)C[C@@H](C(=O)N(C)CC)N(C)C(=O)[C@H](C2CCCC2)N(C)C(=O)C2(CCC2)NC(=O)[C@@H]2C[C@H](C)CN2C(=O)[C@H](CCc2cc(F)c(C(F)(F)F)c(F)c2)NC(=O)CN(C)C(=O)[C@H](Cc2ccc(C(F)(F)F)cc2)N2CC/C=C\C[C@@H](C2=O)N(C)C(=O)CN(C)C1=O [PP1537, (2S,8S,12S,14S,20S,23S,27S,30S,36S,38Z)-20-cyclopentyl-27-(cyclopropylmethyl)-8-[2-[3,5-difluoro-4-(trifluoromethyl)phenyl]ethyl]-N-ethyl-N,4,12,19,22,26,32,35-octamethyl-30-[(1S)-1-methylpropyl]-3,6,9,15,18,21,25,28,31,34,42-undecaoxo-2-[[4-(trifluoromethyl)phenyl]methyl]spiro[1,4,7,10,16,19,22,26,29,32,35-undecazatricyclo[34.5.1.0^10,14]dotetracont-38-ene-17,1′-cyclobutane]-23-carboxamide] | A (a compound having 10 or more and less than 20 is denoted as A) | AA (a compound having 20 or more is denoted as AA) |
